Common to all, as to type: functional
One assay concerns Escherichia coli. The experiment in a line: In vitro antibacterial activity against Escherichia coli ML4707.
For assay [1], the system named is Pseudomonas aeruginosa. In words: In vitro antibacterial activity against Pseudomonas aeruginosa E-2.
Assay [2] has as its system Pseudomonas aeruginosa. The experiment in a line: In vitro antibacterial activity against Pseudomonas aeruginosa IFO12689.
Another assay has as its system Staphylococcus aureus. In words: In vitro antibacterial activity against Staphylococcus aureus Smith.
Assay [3] has as its system Mus musculus. The experiment in a line: Tested in vivo for the therapeutic efficacy against systemic infection caused by Pseudomonas aeruginosa E-2 in mice at a challenge dose of 8*10e4 (cfu/mouse) + 5%mucin.
Assay [4] has as its system Mus musculus. The experiment in a line: Tested in vivo for the therapeutic efficacy against systemic infection caused by Staphylococcus aureus Smith in mice at a challenge dose of 5*10e6 (cfu/mouse) + 5%mucin.
Assay [5] deals with Mus musculus. The experiment in a line: Tested in vivo for the therapeutic efficacy against systemic infection caused by Staphylococcus aureus Smith in mice at a challenge dose of 3.3*10e6 (cfu/mouse) + 5%mucin.
The species entered for assay [6] is Mus musculus. In words: Tested for the therapeutic efficacy against systemic infection caused by Pseudomonas aeruginosa E-2 in mice at a challenge dose of 7.9*10e4 (cfu/mouse) + 5%mucin.
Assay [7] concerns Pseudomonas aeruginosa. The experiment in a line: In vitro for the antibacterial activity against Pseudomonas aeruginosa E-2.

≈ marks a conversion by molar mass, not a printed value.

Take `Nc1nc(/C(=N/OCCSc2nnc(-c3cc(O)c(O)cn3)o2)C(=O)N[C@@H]2C(=O)N3C(C(=O)[O-])=C(C[n+]4ccc(C(=O)[O-])cc4)CS[C@H]23)cs1.[Na+]`: the MIC (usually the least concentration at which growth counts as inhibited) came out at 0.0125 µg/mL in the assay with Escherichia coli, 3.13 µg/mL in the assay with Pseudomonas aeruginosa [1], 0.39 µg/mL against Pseudomonas aeruginosa [2] and 25 µg/mL against Staphylococcus aureus.
For the compound `Nc1nc(/C(=N/OCCSc2nnc(-c3cc(O)c(O)cn3)o2)C(=O)N[C@@H]2C(=O)N3C(C(=O)[O-])=C(CSc4cc[n+](CC(=O)[O-])cc4)CS[C@H]23)cs1.[Na+]`, the MIC in the assay with Escherichia coli was at most 0.0063 µg/mL; in the assay with Pseudomonas aeruginosa [1], 1.56 µg/mL; against Pseudomonas aeruginosa [2], 0.39 µg/mL; in the assay with Staphylococcus aureus, 12.5 µg/mL. Also, in the assay on Mus musculus [3], the ED50 (usually the dose that gives a 50% effect, or the effect in half of the subjects) amounted to 25 mg/kg.
For the compound `Nc1nc(/C(=N/OCCSc2nnc(-c3cc(O)c(O)cn3)o2)C(=O)[N-][C@@H]2C(=O)N3C(C(=O)[O-])=C(C[n+]4ccccc4)CS[C@H]23)cs1.[Na+]`, the MIC with Escherichia coli came to 0.025 µg/mL; against Pseudomonas aeruginosa [1] it was 3.13 µg/mL; against Pseudomonas aeruginosa [2], 0.78 µg/mL; against Staphylococcus aureus it was 3.13 µg/mL.
On to `CC[n+]1ccc(SCC2=C(C(=O)[O-])N3C(=O)[C@@H]([N-]C(=O)/C(=N\OCCSc4nnc(-c5cc(O)c(O)cn5)o4)c4csc(N)n4)[C@H]3SC2)cc1.[Na+]`, for which the MIC against Escherichia coli is at most 0.0063 µg/mL; against Pseudomonas aeruginosa [1], 0.39 µg/mL; with Pseudomonas aeruginosa [2], 0.78 µg/mL; against Staphylococcus aureus, 3.13 µg/mL. Besides, the 50% effective dose (ED50) was 19 mg/kg with Mus musculus [3] and under 0.6 mg/kg in the assay on Mus musculus [4].
Turning to `CN(C)CC[n+]1ccc(SCC2=C(C(=O)[O-])N3C(=O)[C@@H]([N-]C(=O)/C(=N\OCCSc4nnc(-c5cc(O)c(O)cn5)o4)c4csc(N)n4)[C@H]3SC2)cc1.[Na+]`, the minimal inhibitory concentration (MIC) in the assay on Escherichia coli turned out to be 0.025 µg/mL; in the assay on Pseudomonas aeruginosa [1] it was 0.78 µg/mL; in the assay on Pseudomonas aeruginosa [2], 3.13 µg/mL; against Staphylococcus aureus, 6.25 µg/mL.
On to `Nc1nc(/C(=N/OCc2cc(O)c(O)cn2)C(=O)[N-][C@@H]2C(=O)N3C(C(=O)[O-])=C(CSc4cc[n+](CCO)cc4)CS[C@H]23)cs1.[Na+]`, for which the ED50 with Mus musculus [5] was 0.86 mg/kg; in the assay listed under Mus musculus [6], over 40 mg/kg. Further, the minimal inhibitory concentration (MIC) with Pseudomonas aeruginosa [7] amounted to 6.25 µg/mL; against Staphylococcus aureus, 3.13 µg/mL.
Consider `Nc1nc(/C(=N/OCCSc2nnc(-c3ccccn3)o2)C(=O)[N-][C@@H]2C(=O)N3C(C(=O)[O-])=C(CSc4cc[n+](CCO)cc4)CS[C@H]23)cs1.[Na+]`, for which the median effective dose (ED50) is 0.43 mg/kg in the assay with Mus musculus [5] and over 40 mg/kg in the assay filed under Mus musculus [6]. Moreover, the minimal inhibitory concentration (MIC) against Pseudomonas aeruginosa [7] came to 100 µg/mL; against Staphylococcus aureus, 0.39 µg/mL.
Regarding `NC(=O)c1cc[n+](CC2=C(C(=O)[O-])N3C(=O)[C@@H]([N-]C(=O)/C(=N\OCCSc4nnc(-c5cc(O)c(O)cn5)o4)c4csc(N)n4)[C@H]3SC2)cc1.[Na+]`, the minimum inhibitory concentration (MIC) in the assay on Escherichia coli is 0.025 µg/mL; with Pseudomonas aeruginosa [1], 3.13 µg/mL; in the assay on Pseudomonas aeruginosa [2], 1.56 µg/mL; in the assay with Staphylococcus aureus, 6.25 µg/mL.
For `Nc1nc(/C(=N/OCCSc2nnc(-c3ccc(O)c(O)c3)o2)C(=O)[N-][C@@H]2C(=O)N3C(C(=O)[O-])=C(CSc4cc[n+](CCO)cc4)CS[C@H]23)cs1.[Na+]`, the ED50 in the assay with Mus musculus [5] turned out to be 0.86 mg/kg; in the assay filed under Mus musculus [6], 34 mg/kg. Further, the MIC with Pseudomonas aeruginosa [7] and in the assay with Staphylococcus aureus was 0.39 µg/mL each time.
As to `Nc1nc(/C(=N/OCCSc2nnc(-c3cc(O)c(O)cn3)o2)C(=O)[N-][C@@H]2C(=O)N3C(C(=O)[O-])=C(CSc4cc[n+](CCO)cc4)CS[C@H]23)cs1.[Na+]`, the MIC was at most 0.0063 µg/mL with Escherichia coli, 0.39 µg/mL with Pseudomonas aeruginosa [1], 0.78 µg/mL with Pseudomonas aeruginosa [2] and 3.13 µg/mL in the assay with Staphylococcus aureus. Moreover, the median effective dose (ED50) in the assay on Mus musculus [3] is 4.2 mg/kg; with Mus musculus [5], 0.86 mg/kg; with Mus musculus [4] it was under 0.3 mg/kg; in the assay listed under Mus musculus [6], 7.2 mg/kg.
Regarding `Nc1nc(/C(=N/OCCSc2nnc(-c3cc(O)c(O)cn3)o2)C(=O)[N-][C@@H]2C(=O)N3C(C(=O)[O-])=C(C[n+]4ccc(SCCO)cc4)CS[C@H]23)cs1.[Na+]`, the minimum inhibitory concentration (MIC) in the assay on Escherichia coli stood at 0.0125 µg/mL; with Pseudomonas aeruginosa [1] it was 0.78 µg/mL; in the assay on Pseudomonas aeruginosa [2], 0.78 µg/mL; with Staphylococcus aureus, 3.13 µg/mL.
Consider `Nc1nc(/C(=N/OCCSc2nnc(-c3cc(O)c(O)cn3)o2)C(=O)N[C@@H]2C(=O)N3C(C(=O)[O-])=C(CSc4nc5ccccc5s4)CS[C@H]23)cs1.[Na+]`, for which the MIC with Escherichia coli turned out to be 0.0125 µg/mL; against Pseudomonas aeruginosa [1] it was 0.78 µg/mL; in the assay on Pseudomonas aeruginosa [2], 0.78 µg/mL; against Staphylococcus aureus, 3.13 µg/mL. The median effective dose (ED50) in the assay on Mus musculus [3] was over 100 mg/kg.
Regarding `Cc1cc(SCC2=C(C(=O)[O-])N3C(=O)[C@@H](NC(=O)/C(=N\OCCSc4nnc(-c5cc(O)c(O)cn5)o4)c4csc(N)n4)[C@H]3SC2)n2nc(CO)nc2n1.[Na+]`, the minimum inhibitory concentration (MIC) is under 0.0063 µg/mL against Escherichia coli, 0.2 µg/mL against Pseudomonas aeruginosa [1], 0.39 µg/mL with Pseudomonas aeruginosa [2] and 6.25 µg/mL in the assay on Staphylococcus aureus.
`Nc1nc(/C(=N/OCCSc2nnc(-c3cc(O)c(O)cn3)o2)C(=O)N[C@@H]2C(=O)N3C(C(=O)[O-])=C(CSc4nnc(-c5ccncc5)o4)CS[C@H]23)cs1.[Na+]`: the MIC against Escherichia coli was at most 0.0063 µg/mL; with Pseudomonas aeruginosa [1], 0.78 µg/mL; in the assay on Pseudomonas aeruginosa [2], 0.39 µg/mL; in the assay with Staphylococcus aureus, 6.25 µg/mL.
As to `Nc1nc(/C(=N/OCCSc2nnc(-c3cc(O)c(O)cn3)o2)C(=O)N[C@@H]2C(=O)N3C(C(=O)[O-])=C(CSc4nnc(N)s4)CS[C@H]23)cs1.[Na+]`, the MIC against Escherichia coli was at most 0.0063 µg/mL; in the assay with Pseudomonas aeruginosa [1], 0.2 µg/mL; in the assay with Pseudomonas aeruginosa [2] it was 0.2 µg/mL; against Staphylococcus aureus it was 6.25 µg/mL. In addition, the median effective dose (ED50) in the assay on Mus musculus [3] is 35 mg/kg; in the assay with Mus musculus [4], over 20 mg/kg.
Take `Nc1nc(/C(=N/OCCSc2nnc(-c3cc(O)c(O)cn3)o2)C(=O)N[C@@H]2C(=O)N3C(C(=O)[O-])=C(CSc4ccccn4)CS[C@H]23)cs1.[Na+]`: the MIC in the assay on Escherichia coli was at most 0.0063 µg/mL; against Pseudomonas aeruginosa [1] it was 0.39 µg/mL; with Pseudomonas aeruginosa [2], 0.039 µg/mL; in the assay with Staphylococcus aureus, 6.25 µg/mL.
For the compound `Nc1nc(/C(=N/OCCSc2nnc(-c3cc(O)c(O)cn3)o2)C(=O)N[C@@H]2C(=O)N3C(C(=O)[O-])=C(CSc4cnns4)CS[C@H]23)cs1.[Na+]`, the minimum inhibitory concentration (MIC) with Escherichia coli was at most 0.0063 µg/mL; in the assay with Pseudomonas aeruginosa [1], 0.78 µg/mL; against Pseudomonas aeruginosa [2], 0.2 µg/mL; in the assay on Staphylococcus aureus it was 3.13 µg/mL.
In the case of `CO/N=C(\C(=O)N[C@@H]1C(=O)N2C(C(=O)O)=C(COC(C)=O)CS[C@H]12)c1csc(N)n1` [CEFOTAXIME], the MIC with Escherichia coli stood at 0.0125 µg/mL (≈ 0.0274 µM); against Pseudomonas aeruginosa [1] it was 25 µg/mL (≈ 54.9 µM); in the assay on Pseudomonas aeruginosa [2] it was 25 µg/mL (≈ 54.9 µM); with Staphylococcus aureus, 1.56 µg/mL (≈ 3.43 µM). Besides, the ED50 in the assay with Mus musculus [5] was determined as 3 mg/kg; in the assay on Mus musculus [4], 4.6 mg/kg.
Consider `CO/N=C(\C(=O)N[C@@H]1C(=O)N2C(C(=O)[O-])=C(C[n+]3cccc4c3CCC4)CS[C@H]12)c1csc(N)n1` [CEFPIROME], for which, in the assay with Mus musculus [5], the median effective dose (ED50) was 1.5 mg/kg.
In the case of `CC(C)(O/N=C(\C(=O)N[C@@H]1C(=O)N2C(C(=O)[O-])=C(C[n+]3ccccc3)CS[C@H]12)c1csc(N)n1)C(=O)O` [CEFTAZIDIME], the minimum inhibitory concentration (MIC) is 0.05 µg/mL (≈ 0.0915 µM) in the assay on Escherichia coli, 1.56 µg/mL (≈ 2.85 µM) with Pseudomonas aeruginosa [1], 3.13 µg/mL (≈ 5.73 µM) with Pseudomonas aeruginosa [2] and 3.13 µg/mL (≈ 5.73 µM) against Staphylococcus aureus. The figures for the median effective dose (ED50) with Mus musculus [3], in the assay on Mus musculus [4] and in the assay filed under Mus musculus [6] were 55 mg/kg, 8.1 mg/kg and over 100 mg/kg, respectively.

Values taken from ChEMBL document CHEMBL1153672, “Synthesis and biological activity of a novel class of cephalosporins with a oxadiazolyl hydroxypyridone moiety at C-7” (1995).
